Laboratory results from paper PMC10481938, “Discovery of new Schistosoma mansoni aspartyl protease inhibitors by structure-based virtual screening” (Memórias do Instituto Oswaldo Cruz, 2023).

Assays:
[1] = target: recombinant Schistosoma mansoni cathepsin D-like aspartyl protease 1 (SmCD1) (Schistosoma mansoni, UniProt P91802); test: SmCD1 enzymatic assay (FRET substrate Abz-AIAF/FSRQ-EDDnp); type: biochemical; conditions: for inhibition at 10 µM: read-out: Enzymatic activity inhibition (%) SmCD1; for IC50: recombinant SmCD1, pH 3.5, 95% confidence interval in parentheses; for Binding efficiency index (BEI): BEI = pIC50/MW(kDa), from SmCD1 IC50
recombinant Schistosoma mansoni cathepsin D-like aspartyl protease 1 (SmCD1), sequence (P91802 entry or part of it): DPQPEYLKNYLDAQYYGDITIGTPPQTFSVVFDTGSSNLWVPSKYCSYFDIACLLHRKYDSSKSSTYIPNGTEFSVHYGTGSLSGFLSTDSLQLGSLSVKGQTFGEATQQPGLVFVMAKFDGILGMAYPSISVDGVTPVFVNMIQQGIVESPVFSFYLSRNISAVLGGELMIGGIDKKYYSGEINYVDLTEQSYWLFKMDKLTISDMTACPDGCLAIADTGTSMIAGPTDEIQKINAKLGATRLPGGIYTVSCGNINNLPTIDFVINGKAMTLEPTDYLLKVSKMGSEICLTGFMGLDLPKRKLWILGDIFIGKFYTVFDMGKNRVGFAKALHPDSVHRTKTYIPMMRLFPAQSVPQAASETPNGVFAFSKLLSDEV
Description: SmCD1 cloning, expression and purification - Expression of the recombinant enzyme was previously performed by our group[14] by transfection of the vector with recombinant proSmCD1 gene (proSmCD1r) into culture bottles containing human embryonic kidney (HEK293) cells. After an incubation period of three to five days, the culture medium of the HEK293 cells was collected, filtered, and used for the purification of the recombinant protein. A HisTrap FF column in-tandem with a HiLoad 16/60 Superdex column, connected to an Äkta Xpress system were used for the purification of the protein.
(§1) SmCD1 enzymatic assay - Initially, 2.5 μg of SmCD1 was added to a reaction medium containing 50 mM sodium acetate buffer with 50 mM NaCl at pH 3.5. […] After incubation, to start the reaction, 10 μM of the substrate octapeptide fluorescent (FRET) Abz-AIAF/FSRQ-EDDnp (102023-1, GenOne) was added to the medium. The substrate hydrolysis reaction product was continuously detected (λex = 310 nm and λem = 420 nm), using a Flex Station III microplate reader (Molecular Devices), during the initial 10 min of the reaction.
(§2) All enzymatic assays in this work were performed as described above, and repeated at least three times, each condition in triplicate. In tests involving screening of compounds, the percentage of inhibition of enzymatic activity was calculated considering the mean of the negative control as 100% activity.
(§3) Determination of IC 50 values - For IC50 (inhibitor concentration in which the enzymatic activity is reduced by 50%) determination assays, serial dilutions of the inhibitors were performed, ranging from 1 µM to 500 µM. The IC50 values were determined by fitting SmCD1 activity data into the 4-parameter logistic equation.

[2] = tested on: adult worm aqueous extract (AWAE) aspartic protease activity; test: AWAE aspartic protease activity assay; type: biochemical, Schistosoma mansoni; conditions: for IC50: aspartic protease activity of adult worm aqueous extract, with 5 µM E-64, 95% confidence interval in parentheses; for Enzymatic activity inhibition (%) AWAE: 10 μM of compound, average of triplicate of single experiment, CV% in parentheses
Description: Preparation of adult worm aqueous extract (AWAE) - The extract was prepared from the homogenisation of 1 mL of worms, containing both male and female, in 5 mL of phosphate buffered saline (PBS) + 1% CHAPS, at pH 7.4, using a Turrax disperser. This volume of parasites is roughly equivalent to 20 adult parasites. The homogenate was centrifuged at 20,000 g for 1 hour at 4 °C, and the supernatant stored at -80 °C. An aliquot was used for the protein dosing by the Lowry method (DC^TM protein assay - BIO-RAD).
[…] In tests involving screening of compounds, the percentage of inhibition of enzymatic activity was calculated considering the mean of the negative control as 100% activity.
(§4) AWAE aspartic protease activity assay - For assaying the aspartyl protease activity present in the AWAE, the same protocol described above for SmCD1 was followed, except for 20 µg of total proteins present in AWAE were added instead of the recombinant SmCD1 enzyme. Additionally, 5 µM of E-64, an inhibitor of cysteinyl proteases, was added to prevent enzymes of this class present in the AWAE[15] to also contribute to substrate hydrolysis on the acidic pH of the assay.
as §3

porcine pepsin = target: T1, porcine pepsin (Sus scrofa, UniProt P00791); test: Specificity assay toward porcine pepsin; type: biochemical; conditions: for inhibition at 10 µM: 10 μM of compound, average of triplicate of single experiment, CV% in parentheses, read-out: Enzymatic activity inhibition (%) Pepsin; for IC50: porcine pepsin, 95% confidence interval in parentheses
T1 construct: purchased Difco 0151-17 / 215110
T1 sequence (P00791 60-385): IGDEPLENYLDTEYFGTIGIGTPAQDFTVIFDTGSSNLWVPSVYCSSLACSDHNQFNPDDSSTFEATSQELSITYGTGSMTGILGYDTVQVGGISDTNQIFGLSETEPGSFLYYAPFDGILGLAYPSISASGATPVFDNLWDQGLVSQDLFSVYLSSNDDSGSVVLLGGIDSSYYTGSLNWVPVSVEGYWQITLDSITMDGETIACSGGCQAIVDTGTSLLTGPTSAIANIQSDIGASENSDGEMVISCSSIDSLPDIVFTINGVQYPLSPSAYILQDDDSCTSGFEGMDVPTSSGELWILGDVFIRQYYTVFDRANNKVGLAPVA
Description: as §1
(§5) Specificity assays toward mammalian proteases - For recombinant BtCD and porcine pepsin, the same protocol described above for SmCD1 was followed, except for 10 μg of BtCD or 5 μg of pepsin were added.
The IC50 values were determined by fitting SmCD1 activity data into the 4-parameter logistic equation.

[3] = tested on: aspartic protease activity (porcine pepsin, SmCD1, AWAE); test: Aspartic protease inhibition screening of 50 putative hits (hit criterion); type: biochemical; conditions: 10 µM, SmCD1 or AWAE
Description: as §1, §2, §4, §5
The AWAE assay captures the combined activities of all SmAPs present in schistosome adult worms, while excluding the concurrent cysteinyl protease activity, due the addition of the broad-spectrum E-64 inhibitor.

WSS-1 cells = test: Cytotoxicity assay on human WSS-1 cells (resazurin); type: cell-based; conditions: 48 h
Description: Cytotoxicity assays on human WSS-1 cells - The cytotoxicity of compounds 5, 19 and 50 was evaluated against normal epithelial cells derived from human kidney (WSS-1, ATCC™ CRL-2029). Cells were seeded in 96-well plates, at 5x10^4 cells/mL, in DMEM high glucose medium supplemented with 10% foetal bovine serum (FBS). After adherence period of 24 h, at 37 °C and 5% CO2, the cells were treated with compounds at 10 µM or 100 μM concentrations and incubated for 44 h. After this time, resazurin solution was added to cells culture, at a final concentration of 0.01 mg/mL. The cells returned to the incubator for another 4 h to complete 48 h total incubation time.[50]
Fluorescence readings of resorufin (λex = 560 nm, λem = 590 nm) were taken immediately (F0) and 4 hours (F4) after resazurin addition, using Flex Station III. The percentage of viable cells at the end of the experiment, that is, after compounds exposure for 48h, was calculated as follows: […]
<mml:math><mml:mi>V</mml:mi><mml:mi>i</mml:mi><mml:mi>a</mml:mi><mml:mi>b</mml:mi><mml:mi>l</mml:mi><mml:mi>e</mml:mi><mml:mi> </mml:mi><mml:mi>c</mml:mi><mml:mi>e</mml:mi><mml:mi>l</mml:mi><mml:mi>l</mml:mi><mml:mi>s</mml:mi><mml:mo>=</mml:mo><mml:mfrac><mml:mrow><mml:mi>F</mml:mi><mml:mn>4</mml:mn><mml:mo>-</mml:mo><mml:mi>F</mml:mi><mml:mn>0</mml:mn><mml:mi mathvariant="normal"> </mml:mi><mml:mi mathvariant="normal">t</mml:mi><mml:mi mathvariant="normal">r</mml:mi><mml:mi mathvariant="normal">e</mml:mi><mml:mi mathvariant="normal">a</mml:mi><mml:mi mathvariant="normal">t</mml:mi><mml:mi mathvariant="normal">e</mml:mi><mml:mi mathvariant="normal">d</mml:mi></mml:mrow><mml:mrow><mml:mi>F</mml:mi><mml:mn>4</mml:mn><mml:mo>-</mml:mo><mml:mi>F</mml:mi><mml:mn>0</mml:mn><mml:mi mathvariant="normal"> </mml:mi><mml:mi mathvariant="normal">c</mml:mi><mml:mi mathvariant="normal">o</mml:mi><mml:mi mathvariant="normal">n</mml:mi><mml:mi mathvariant="normal">t</mml:mi><mml:mi mathvariant="normal">r</mml:mi><mml:mi mathvariant="normal">o</mml:mi><mml:mi mathvariant="normal">l</mml:mi></mml:mrow></mml:mfrac><mml:mi mathvariant="normal"> </mml:mi><mml:mi mathvariant="normal">x</mml:mi><mml:mi mathvariant="normal"> </mml:mi><mml:mn>100</mml:mn><mml:mi mathvariant="normal"> </mml:mi></mml:math>

adult S. mansoni worms = test: Schistosoma mansoni adult worms ex vivo motility assay; type: cell-based; conditions: 10 µM; for killing of adult worms ex vivo (judged by worm motility): up to 72 h, male and female adult worms; for effect on female worms motility: late incubation times (48 or 72 h), female adult worms
Description: Schistosoma mansoni adult worms ex vivo assay - The effect of 10 µM of the test compounds or PZQ (positive control) on adult S. mansoni worms motility for up to 72 h of incubation at 37 °C and 5% CO2 was evaluated by a high content assay previously developed by our group.[50] Image analysis was carried out in a customised pipeline of the open-source Cellprofiler software v. 4.2.1[51] and consisted of quantifying parasites area (Area measurement of MeasureObjectSizeShape module) and its displacement over pairs of consecutive images (false negative rate measurement of MeasureObjectOverlap module). […] The effects of the experimental treatments on parasites motility were estimated from this model by the integrated nested laplace approximation (INLA) method available in INLA package of R (https://www.r-inla.org). The results were expressed as percentual relative motility considering the estimated effect of the negative control group (0.2% DMSO) for each incubation time as 100%.

[4] = target: T2, bovine cathepsin D (BtCD) (Bos taurus, UniProt P80209); test: Specificity assay toward bovine cathepsin D (BtCD); type: biochemical
T2 construct: purchased Sigma-Aldrich C3138
T2 sequence (P80209 45-390): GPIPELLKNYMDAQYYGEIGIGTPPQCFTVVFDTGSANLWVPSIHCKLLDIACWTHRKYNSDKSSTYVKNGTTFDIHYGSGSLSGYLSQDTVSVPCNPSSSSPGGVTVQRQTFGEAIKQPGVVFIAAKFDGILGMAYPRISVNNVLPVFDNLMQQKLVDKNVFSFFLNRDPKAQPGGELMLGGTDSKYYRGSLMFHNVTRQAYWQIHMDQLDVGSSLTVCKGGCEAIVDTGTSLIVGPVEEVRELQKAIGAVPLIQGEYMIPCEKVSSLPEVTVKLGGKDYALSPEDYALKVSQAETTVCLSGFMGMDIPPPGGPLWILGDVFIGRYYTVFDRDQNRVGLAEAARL
Description: as §1, §5

[5] = up to tested concentration 500 μM

N=C(Nc1ccccc1)Nc1nc(=O)cc(CSc2nc3ccccc3s2)[nH]1 [Compound 32]
inhibition at 10 µM [1]: 12.2% | IC50 [1]: > 500 µM | IC50 [2]: > 500 µM | inhibition at 10 µM (porcine pepsin): 34.7% | IC50 (porcine pepsin): 72.5 µM | inhibition of any of the aspartic protease activity (considered active) [3]: ≥ 25%

Cc1cccc(NC(=O)CSc2ncnc3sc4c(c23)CCC(C)C4)c1 (centres unmarked) [Compound 19, 2-((7-methyl-5,6,7,8-tetrahydrobenzo[4,5]thieno[2,3-d]pyrimidin-4-yl)thio)-N-(m-tolyl)acetamide]
Binding efficiency index (BEI) [1]: 10.4 | inhibition at 10 µM [1]: -15.3% | IC50 [1]: 102 µM | Enzymatic activity inhibition (%) AWAE [2]: 9.20 (12) % | IC50 [2]: > 500 µM | inhibition at 10 µM (porcine pepsin): 42.4% | IC50 (porcine pepsin): 23.1 µM | cytotoxicity against WSS-1 cells (WSS-1 cells; 10 µM): neither cytotoxic | cytotoxicity against WSS-1 cells (WSS-1 cells; up to 100 µM): non-toxic | killing of adult worms ex vivo (judged by worm motility) (adult S. mansoni worms): nor could kill adult worms | inhibition of any of the aspartic protease activity (considered active) [3]: ≥ 25%

Cc1ccc(C(C)(C)C)c(OCCCNCCN)c1 [Compound 12]
inhibition at 10 µM [1]: -10.5% | IC50 [1]: > 500 µM | Enzymatic activity inhibition (%) AWAE [2]: 32.0 (11) % | IC50 [2]: 315 µM | inhibition at 10 µM (porcine pepsin): -3.5% | IC50 (porcine pepsin): 231 µM | inhibition of any of the aspartic protease activity (considered active) [3]: ≥ 25%

Cc1cccc(NS(=O)(=O)c2ccc3[nH]c(=O)c(=O)[nH]c3c2)c1 [Compound 5, 2,3-dioxo-N-(m-tolyl)-1,2,3,4-tetrahydroquinoxaline-6-sulfonamide]
Binding efficiency index (BEI) [1]: 12.3 | inhibition at 10 µM [1]: 24.3% | IC50 [1]: 83.6 µM | Enzymatic activity inhibition (%) AWAE [2]: 23.0 (14) % | IC50 [2]: 135 µM | inhibition at 10 µM (porcine pepsin): 44.2% | IC50 (porcine pepsin): 92.6 µM | inhibition at 500 µM ([4]; highest concentration evaluated, 500 μM (solubility limitation)): ≤ 45% | IC50 ([4]; inferred from less than 50% inhibition at 500 μM): > 500 µM | cytotoxicity against WSS-1 cells (WSS-1 cells; 10 µM): neither cytotoxic | cytotoxicity against WSS-1 cells (WSS-1 cells; up to 100 µM): non-toxic | effect on female worms motility (adult S. mansoni worms): slight decrease | killing of adult worms ex vivo (judged by worm motility) (adult S. mansoni worms): nor could kill adult worms | inhibition of any of the aspartic protease activity (considered active) [3]: ≥ 25%

Fc1ccc(-c2ccc(CNCCOc3ccccn3)o2)cc1Cl [Compound 50]
inhibition at 10 µM [1]: 3.4% | IC50 [1]: > 500 µM | inhibition against SmCD1 [1, 5]: not showing significant inhibition | Enzymatic activity inhibition (%) AWAE [2]: 34.5 (8) % | IC50 [2]: 77.7 µM | inhibition at 10 µM (porcine pepsin): 10.5% | IC50 (porcine pepsin): > 500 µM | inhibition against pepsin (porcine pepsin; [5]): not showing significant inhibition | cytotoxicity against WSS-1 cells (WSS-1 cells; 10 µM): neither cytotoxic and safe | decrease of WSS-1 cell viability (WSS-1 cells; 100 µM): more than 90% | effect on female worms motility (adult S. mansoni worms): slight decrease | killing of adult worms ex vivo (judged by worm motility) (adult S. mansoni worms): nor could kill adult worms | inhibition of any of the aspartic protease activity (considered active) [3]: ≥ 25%

pepstatin A [reference compound]
Enzymatic activity inhibition (%) AWAE [2]: 98.7 (7) %

CCn1c2ccccc2c2cc(NC(=O)CSC3=C(C#N)C(c4ccccc4F)CC(=O)N3)ccc21 (centres unmarked) [Compound 22]
inhibition at 10 µM [1]: 1.8% | IC50 [1]: > 500 µM | Enzymatic activity inhibition (%) AWAE [2]: 16.0 (15) % | IC50 [2]: > 500 µM | inhibition at 10 µM (porcine pepsin): 25.4% | IC50 (porcine pepsin): 38 µM | inhibition of any of the aspartic protease activity (considered active) [3]: ≥ 25%

O=C(CSc1nc2cc([N+](=O)[O-])ccc2[nH]1)Nc1ccc(F)c(F)c1 [Compound 1]
inhibition at 10 µM [1]: 0.4% | IC50 [1]: > 500 µM | IC50 [2]: > 500 µM | inhibition at 10 µM (porcine pepsin): 5.6% | IC50 (porcine pepsin): > 500 µM | inhibition of any of the aspartic protease activity (considered active) [3]: ≥ 25%
